One compound from patent publication US10238631B2, “Sesquiterpene derivatives and their use in inflammation or cancer treatment” (Academia Sinica, priority 2014, dated 2019) can be followed below.

“And” between values parts separate entries of the source, which are not always exact repeats. Equal values may be shown once.

Data set [1] concerns A375-R acquired vemurafenib resistance melanoma cells. Briefly: MTT cell viability assay, PLX4032-resistant A375-R. The class given is cell-based, human. To be noted: Homo sapiens; 72 h, MTT. As for the experimental part:
A375-R, acquired vemurafenib resistance melanoma cell was generated from A375 parental cell and grown in same conditions as A375 cell.
Normal or cancer cells (2×10^3 to 1×10^4 cells/well) were seeded in 96-well plate for overnight and treated with different compounds for 24 h to 72 h. Cells growth were determined by MTT-based colorimetric assays according to. Viability of the test cells treated with vehicle (0.5% DMSO) only was defined as 100% viable. Survival of cells after treatment with DETDs was calculated using the following formula: viable cell number (%)=OD570 (treated cell culture)/OD570 (vehicle control)×100.
To study the mechanisms underlying how DETD-35 overcomes acquired resistance to BRAF inhibitor, we generated A375 cell line resistant to PLX4032 (designated A375-R). Briefly, A375 melanoma cells were seeded in T75 plate and treated with ascending concentration of PLX4032 (20, 50, 100, 250, 500, 1000, 2000 nM) through approximately 2 months and 20 passages.
A general note: Tetrazolium assays rely on reduction of a dye to a coloured formazan, in cell work by metabolically active cells.

Data set [2] deals with MDA-MB-231 lung metastasis. Briefly: Lung metastasis of MDA-MB-231 cells in SCID mice. The class given is in vivo, mouse. As for the experimental part:
Female SCID mice (5 weeks old, average body weight 19.59±1.26 g) were assigned to 8 groups: PIX group (5 mg/kg paclitaxel), DETD-35-2 group (2 mg/kg DETD-35), DETD-35-10 group (10 mg/kg DETD-35). PTX-5+DETD-35-2 group (5 mg/kg paclitaxel and 2 mg/kg DETD-35 administration alternatively for eleven doses of paclitaxel (PTX) and ten doses of DETD-35 in total), tumor (vehicle) group (5% DMSO), and sham group (5% DMSO). Pre-DETD-35-10 group was the mice administered 10 mg/kg DETD-35 every two days for three doses before the i.v. injection of 1×10^6 MDA-MB-231 tumor cells at day 0. All other drug or compounds were administered i.p. every three days starting from day 1. At the end of experiment (day 71), the test mice were sacrificed by cervical dislocation. The lung, liver, kidney, and spleen organs were removed and recorded weights and calculated for organ index (% of organ weight/body weight). The number of tumor colonies on lungs of test mice was counted.

For data set [3], the system named is phospho-MEK and phospho-ERK in A375-R cells. Briefly: Western blot of MAPK signaling, A375-R. The class given is cell-based, human. As for the experimental part:
Total cellular proteins were prepared from test cells as previously described. Protein concentration was determined by the Bradford method (Bio-Rad). Protein samples were resolved by 5% to 20% gradient SDS-PAGE and then underwent immunoblotting. Primary antibodies against ERK1/2 and GAPDH were from Santa Cruz Biotechnology (Santa Cruz, Calif., USA) and MEK, phospho-ERK1/2 and phospho-MEK were from Cell Signaling Technology (Danvers, Mass., USA). Appropriate horseradish peroxidase-conjugated secondary antibodies were used. Protein bands reacting to specific antibody were visualized by use of enhanced chemiluminescence (Amersham) with exposure to chemiluminescence light film (BioMax; Kodak Co.).
Background: In western blotting, separated proteins are transferred to a membrane and probed.

A further data set relates to A375 melanoma cells. Briefly: Compound-drug combination assay with PLX4032. In kind it is cell-based, human. To be noted: DETD-35 0.1 to 1 μM, PLX4032 10 to 100 nM, 72 h. As for the experimental part:
(§1) Cell proliferation was measured by MTT assay. Isobologram analysis and Chou-Talalay method was used to determine the effects of compound drug combinations. The interaction of DETDs and PLX4032 or PTX was determined by the combination index (CI), and the CI plot was generated using CompuSyn software. The combined effects of two compounds can be categorized as follows: CI=1 indicates additive interaction, CI<1 indicates synergism, and CI>1 indicates antagonism.
To investigate whether or not DETD-35 show synergism with PLX4032 against A375 melanoma cells, we performed anti-proliferation assay using MTT reagent to obtain IC50 of each compound. […] The synergistic effect was quantified by combination index (CI) analysis as stated above.

Data set [4] relates to melanoma cell lines B16-F10, MeWo, A375, A2058, HTB-68. Put plainly: MTT cell viability assay, all melanoma cell lines. In kind it is cell-based. To be noted: 24 h, read-out: IC50 values over all types of melanoma cell lines. The method, boiled down: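 Viability is determined colorimetrically with MTT after a 24 h to 72 h compound treatment. Vehicle wells containing 0.5% DMSO define 100% viability, and treated OD570 values are expressed relative to them.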

In the next data set the test system is MDA-MB-231 cells. Briefly: Compound-drug combination assay with PTX. The class given is cell-based, human. To be noted: 0-4 μM compound, 0-25 nM PTX. As for the experimental part: as §1
To investigate whether or not DETD-35 and DETD-39 act synergistically with PTX against MDA-MB-231 cell activity, anti-proliferation assay using MTT reagent was performed to obtain the IC60 value of each compound. […] Based on the IC60 values, DETD-35 or DETD-39 ranging from 0 to 4 μM and PIX from 0 to 25 nM were used for compound-drug combination study. Classic isobologram analysis and Chou-Talalay method were conducted to investigate the synergistic effect of compound and drug. Combination index (CI) was calculated with CalcuSyn software (Version 2.0, Biosoft) and expressed as CI vs. Fa (fraction affected). CI<1 indicates synergy; CI=1 indicates additive effect; and CI>1 indicates antagonism.

A further data set concerns MDA-MB-231 mammary tumor. Briefly: Orthotopic MDA-MB-231 mammary tumor growth in NOD/SCID mice. In kind it is in vivo, mouse. As for the experimental part:
Mammary tumor response to DET analog (DETD-35) was studied using MDA-MB-231 cancer cell bearing NOD/SCID mice (6 weeks old). The mammary fat pad regions of mice were injected with 5×10^6 MDA-MB-231 cells in 100 μL (9.1 mg/mL) matrigel (Basement Membrane Matrix. Phenol Red-free) on day 0. Tumors were allowed to grow in the mice for 7 days, and then the animals were randomly assigned to three groups (n=5 per group): sham, tumor (vehicle) control and 10 mg/kg DETD-35 treatment group. DETD-35 was intraperitoneally […] injected every three days. The test mice were sacrificed by cervical dislocation at day 71, and the tumor were collected and measured for the volume (V) using calipers and calculated by the formula V=(L×W^2)/2, where L is the length and W is the width of tumor.

As usually defined, the IC50 is the midpoint of a concentration-inhibition curve. For `C=C1C(=O)O[C@H]2CC3=C[C@@H](C/C(C)=C/[C@@H](OC(=O)Cc4cccc5ccccc45)[C@H]12)OC3=O` [DETD-35], the IC50 in data set [1] was 800 nM; in data set [4] it was 1600 to 9900 nM and 2500 to 6000 nM. The body weight result in data set [2] (2 mg/kg group) was “slightly lower than other groups with no statistical difference”. Further, the “reduction of number of tumor foci in lungs vs tumor control” value in data set [2] (post-treatment, 2 mg/kg i.p. every three days, not statistically significant) is on record as 9%; in data set [2] (post-treatment, 10 mg/kg i.p. every three days), 50%; in data set [2] (pretreatment, 10 mg/kg every two days, three doses before tumor cell injection), 83%. The “effect on MAP kinases (phospho-MEK, phospho-ERK), A375-R” value in data set [3] is recorded as “inhibited reactivation of MAP kinases”. Besides, the “combination effect with PLX4032 (combination index)” value in the data set with A375 melanoma cells is recorded as “acted synergistically”. Besides, the “combination effect with PTX (isobologram, combination index)” value in the data set on MDA-MB-231 cells is “acted synergistically”. Further, the “effect on mouse body weight” value with MDA-MB-231 mammary tumor (10 mg/kg i.p.) is “without affecting the mouse body weight”. Also, the “fold decrease of tumor volume at day-71 vs tumor control” value in the data set on MDA-MB-231 mammary tumor (10 mg/kg i.p.) is given as 1.8 folds. Moreover, the “tumor growth vs control group” value in the data set with MDA-MB-231 mammary tumor (10 mg/kg i.p. every three days, day-56) was “significantly delayed”. For the same compound, the “tumor volume at day-71” value in the data set with MDA-MB-231 mammary tumor (10 mg/kg i.p. every three days, tumor control 1268) is 712 mm^3.
